In PubChem BioAssay AID2060488 (Molecular Pharmacology Branch, DTP, NCI, 2025):

Tested on: 966289-007-R4-J1-PDC complex spheroid viability
Experiment: Anticancer human tumor 966289-007-R4-J1-PDC patient-derived pancreatic adenocarcinoma cell line growth inhibition [GQUAD]
Conditions: for IC50: curve of first compound; for viability, T/C: stronger effect = lower value
Description: DNA G-quadruplex Stabilizer Agents in Combinations in Complex Spheroids
A high-throughput screen of multi-cell type tumor spheroids was designed to identify active combinations of DNA G-quadruplex stabilizer agents and targeted small molecules. Complex spheroids include a stromal component modeled by human endothelial cells (HUVEC) and fibroblasts modeled by human mesenchymal stem cells (MSCs). The concentration ranges selected for each drug and investigational agent were based upon clinically achievable concentrations if the clinical Cmax of the agent was known.
Compounds. The drugs and investigational agents: pidnarulex (CX-5461; NSC782164), APTO-253 (NSC789042), BRACO-19 (NSC847499), peposertib (NSC802822), ceralasertib (NSC780249), elimusertib (NSC800525), camonsertib (NSC841442), AZD-1390 (NSC803789), olaparib (NSC753686), talazoparib (NSC767125), ART-558 (NSC835418), sotorasib (NSC818433), MRTX-1133 (NSC836407), SN-38 (NSC673596), topotecan (NSC609699), etoposide (NSC141540), doxorubicin (NSC123127), gemcitabine (NSC613327), 5-fluorouracil (NSC19893), paclitaxel (NSC125973), vemurafenib (NSC761431), panobinostat (NSC761190), R-306465 (JNJ-16241199; NSC773264), adavosertib (NSC754352), TP-3654 (NSC805149), carboplatin (NSC241240), KSQ-4279 (NSC840948), and staurosporine (NSC755774) were obtained from the National Cancer Institute (NCI) Developmental Therapeutics Program Chemical Repository (34). The FDA-approved anticancer drug set is available from the NCI Developmental Therapeutics Program. […] The stock solutions were prepared in dimethyl sulfoxide (DMSO, Sigma-Aldrich, St. Louis, MO, cat. D2650) at 800-fold the tested concentration and stored at -70 degrees C prior to their use. All drugs and investigational agents were tested over a range starting from a high concentration at or near the clinical Cmax and decreasing in half-log increments. If the clinical Cmax for an agent had not been determined, the highest concentration tested was 10 microM.
2.3 Cell Culture. All cells were maintained in an incubator at 37 degrees C and 5% CO2 with 95% humidity. The PDC lines were cultured according to standard operating procedures established by the NCI PDMR. All PDCs were thawed and cultured in Matrigel-coated flasks prepared with a working solution of 1X Ham's F-12 nutrient mix, without supplementation (Invitrogen, cat. 11765054), 100 U/mL penicillin-streptomycin (Invitrogen, cat. 15140122), and 2.5% Matrigel (Corning Inc., cat. 354248) for the first three passages. The 857933-349-R-J2-PDC line was cultured in 6C/Colon 1B media, which includes advanced DMEM/F-12 (Thermo Fisher Scientific, cat. 12634028), 10 mM HEPES (Thermo Fisher Scientific, cat. 15630080), 1X GlutaMAX supplement (Thermo Fisher Scientific, cat. 35050061), 0.1 mg/mL primocin (InvivoGen, cat. ant-pm-2), 10% defined fetal bovine serum, heat inactivated (HyClone Laboratories Inc., cat. SH30070.03HI), 50% L-WRN conditioned media (ATCC, cat. CRL-3276), 1.25 mM N-Acetyl-L-cysteine (Sigma-Aldrich, cat. A9165), 10 mM nicotinamide (Sigma-Aldrich, cat. N0636), 1X B-27 supplement (Thermo Fisher Scientific, cat. 17504044), 1X N-2 supplement (Thermo Fisher Scientific, cat. 17502048), 10 microM Y-27632 dihydrochloride (Tocris Bioscience, cat. 1254), and 50 ng/mL human EGF recombinant protein (Thermo Fisher Scientific, cat. PHG0311). The 485176-168-R4-J1-PDC line was cultured in Panc media, which includes all 6C/Colon 1B media components plus 100 ng/mL human FGF-10 (Thermo Fisher Scientific, cat. 100-26), 500 nM SB-431542 (Selleckchem, cat. S1067), and gastrin (Tocris, cat. 3006).
[…]

[1] = second compound 0.0316 µM, first compound 0.0316 µM
[2] = second compound 0.0316 µM, first compound 0.1 µM
[3] = second compound 0.0316 µM, first compound 0.316 µM
[4] = second compound 0.0316 µM, first compound 1 µM
[5] = second compound 0.0316 µM, first compound 3.16 µM
[6] = second compound 0.0316 µM, first compound 10 µM
[7] = second compound 0.1 µM, first compound 0.0316 µM
[8] = second compound 0.1 µM, first compound 0.1 µM
[9] = second compound 0.1 µM, first compound 0.316 µM
[10] = second compound 0.1 µM, first compound 1 µM
[11] = second compound 0.1 µM, first compound 3.16 µM
[12] = second compound 0.1 µM, first compound 10 µM
[13] = second compound 0.316 µM, first compound 0.0316 µM
[14] = second compound 0.316 µM, first compound 0.1 µM
[15] = second compound 0.316 µM, first compound 0.316 µM
[16] = second compound 0.316 µM, first compound 1 µM
[17] = second compound 0.316 µM, first compound 3.16 µM
[18] = second compound 0.316 µM, first compound 10 µM
[19] = second compound 1 µM, first compound 0.0316 µM
[20] = second compound 1 µM, first compound 0.1 µM
[21] = second compound 1 µM, first compound 0.316 µM
[22] = second compound 1 µM, first compound 1 µM
[23] = second compound 1 µM, first compound 3.16 µM
[24] = second compound 1 µM, first compound 10 µM
[25] = second compound 3.16 µM, first compound 0.0316 µM
[26] = second compound 3.16 µM, first compound 0.1 µM
[27] = second compound 3.16 µM, first compound 0.316 µM
[28] = second compound 3.16 µM, first compound 1 µM
[29] = second compound 3.16 µM, first compound 3.16 µM
[30] = second compound 3.16 µM, first compound 10 µM
[31] = second compound 10 µM, first compound 0.0316 µM
[32] = second compound 10 µM, first compound 0.1 µM
[33] = second compound 10 µM, first compound 0.316 µM
[34] = second compound 10 µM, first compound 1 µM
[35] = second compound 10 µM, first compound 3.16 µM
[36] = second compound 10 µM, first compound 10 µM
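Also: spheroids exposed to the agents for seven days before readout.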
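For viability, T/C in this document: percent viability relative to DMSO vehicle control wells taken as 100%.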

## CC(C)n1c(=O)n(C)c2cnc3cc(F)c(-c4ccc(OCCCN5CCCCC5)nc4)cc3c21 + CN(C)c1ccc(Nc2c3ccc(NC(=O)CCN4CCCC4)cc3nc3cc(NC(=O)CCN4CCCC4)ccc23)cc1
Second compound 0.0316 µM
  IC50: > 10000 nM
Second compound 0.1 µM
  IC50: > 10000 nM
Second compound 0.316 µM
  IC50: > 10000 nM
Second compound 1 µM
  IC50: > 10000 nM
Second compound 3.16 µM
  IC50: 5670 nM
Second compound 10 µM
  IC50: 269 nM
[1]
  viability, T/C: 108%
[2]
  viability, T/C: 105%
[3]
  viability, T/C: 108%
[4]
  viability, T/C: 106%
[5]
  viability, T/C: 108%
[6]
  viability, T/C: 87.5%
[7]
  viability, T/C: 103%
[8]
  viability, T/C: 102%
[9]
  viability, T/C: 106%
[10]
  viability, T/C: 106%
[11]
  viability, T/C: 107%
[12]
  viability, T/C: 88%
[13]
  viability, T/C: 98.1%
[14]
  viability, T/C: 103%
[15]
  viability, T/C: 107%
[16]
  viability, T/C: 109%
[17]
  viability, T/C: 107%
[18]
  viability, T/C: 86.6%
[19]
  viability, T/C: 103%
[20]
  viability, T/C: 99.5%
[21]
  viability, T/C: 107%
[22]
  viability, T/C: 108%
[23]
  viability, T/C: 103%
[24]
  viability, T/C: 70.5%
[25]
  viability, T/C: 102%
[26]
  viability, T/C: 104%
[27]
  viability, T/C: 107%
[28]
  viability, T/C: 102%
[29]
  viability, T/C: 87.1%
[30]
  viability, T/C: 14.1%
[31]
  viability, T/C: 98.7%
[32]
  viability, T/C: 79%
[33]
  viability, T/C: 46%
[34]
  viability, T/C: 16%
[35]
  viability, T/C: 5.65%
[36]
  viability, T/C: 1.75%

## O=C(NO)c1cnc(N2CCN(S(=O)(=O)c3ccc4ccccc4c3)CC2)nc1 + CN(C)c1ccc(Nc2c3ccc(NC(=O)CCN4CCCC4)cc3nc3cc(NC(=O)CCN4CCCC4)ccc23)cc1
Second compound 0.0316 µM
  IC50: 363 nM
Second compound 0.1 µM
  IC50: 431 nM
Second compound 0.316 µM
  IC50: 343 nM
Second compound 1 µM
  IC50: 264 nM
Second compound 3.16 µM
  IC50: 279 nM
Second compound 10 µM
  IC50: 191 nM
[1]
  viability, T/C: 112%
[2]
  viability, T/C: 107%
[3]
  viability, T/C: 55.2%
[4]
  viability, T/C: 9.1%
[5]
  viability, T/C: 1.51%
[6]
  viability, T/C: 0.76%
[7]
  viability, T/C: 105%
[8]
  viability, T/C: 106%
[9]
  viability, T/C: 64.2%
[10]
  viability, T/C: 10.4%
[11]
  viability, T/C: 1.4%
[12]
  viability, T/C: 0.24%
[13]
  viability, T/C: 106%
[14]
  viability, T/C: 108%
[15]
  viability, T/C: 52.9%
[16]
  viability, T/C: 7.46%
[17]
  viability, T/C: 1.19%
[18]
  viability, T/C: 0.23%
[19]
  viability, T/C: 100%
[20]
  viability, T/C: 108%
[21]
  viability, T/C: 39.9%
[22]
  viability, T/C: 8.91%
[23]
  viability, T/C: 1.33%
[24]
  viability, T/C: 0.27%
[25]
  viability, T/C: 97.1%
[26]
  viability, T/C: 107%
[27]
  viability, T/C: 43.6%
[28]
  viability, T/C: 5.36%
[29]
  viability, T/C: 0.77%
[30]
  viability, T/C: 0.21%
[31]
  viability, T/C: 101%
[32]
  viability, T/C: 106%
[33]
  viability, T/C: 7.93%
[34]
  viability, T/C: 1.01%
[35]
  viability, T/C: 0.44%
[36]
  viability, T/C: 0.14%

## O=C(NO)c1cnc(N2CCN(S(=O)(=O)c3ccc4ccccc4c3)CC2)nc1 + Cc1[nH]c2ccc(F)cc2c1-c1nc2c3cccnc3c3ncccc3c2[nH]1
Second compound 0.0316 µM
  IC50: 682 nM
Second compound 0.1 µM
  IC50: 847 nM
Second compound 0.316 µM
  IC50: 1170 nM
Second compound 1 µM
  IC50: 1250 nM
Second compound 3.16 µM
  IC50: 943 nM
Second compound 10 µM
  IC50: 948 nM
[1]
  viability, T/C: 100%
[2]
  viability, T/C: 96.8%
[3]
  viability, T/C: 112%
[4]
  viability, T/C: 23.5%
[5]
  viability, T/C: 1.82%
[6]
  viability, T/C: 0.49%
[7]
  viability, T/C: 104%
[8]
  viability, T/C: 97.4%
[9]
  viability, T/C: 110%
[10]
  viability, T/C: 41%
[11]
  viability, T/C: 1.2%
[12]
  viability, T/C: 0.14%
[13]
  viability, T/C: 103%
[14]
  viability, T/C: 97.2%
[15]
  viability, T/C: 110%
[16]
  viability, T/C: 57.5%
[17]
  viability, T/C: 3.37%
[18]
  viability, T/C: 0.12%
[19]
  viability, T/C: 94.7%
[20]
  viability, T/C: 102%
[21]
  viability, T/C: 115%
[22]
  viability, T/C: 61.3%
[23]
  viability, T/C: 4.62%
[24]
  viability, T/C: 0.3%
[25]
  viability, T/C: 101%
[26]
  viability, T/C: 111%
[27]
  viability, T/C: 111%
[28]
  viability, T/C: 46.9%
[29]
  viability, T/C: 3.24%
[30]
  viability, T/C: 0.41%
[31]
  viability, T/C: 112%
[32]
  viability, T/C: 104%
[33]
  viability, T/C: 115%
[34]
  viability, T/C: 47.1%
[35]
  viability, T/C: 2.05%
[36]
  viability, T/C: 0.25%
